{"source": "paper PMC7177849", "about": "“Gut Microbial Catabolites of Tryptophan Are Ligands and Agonists of the Aryl Hydrocarbon Receptor: A Detailed Characterization” (International Journal of Molecular Sciences, 2020)", "key": {"[1]": {"tested_on": "CYP1A1 mRNA", "experiment": "CYP1A1 mRNA (qRT-PCR) in intestinal LS180 cells", "assay_type": "cell-based, human", "details": "LS180 cells co-incubated with TCDD (10 nM), 24 h", "description": "(§1) Figure 4 Effects of MICT on the induction of CYP1A1 mRNA in human hepatic and intestinal cells. Cultured cells were incubated for 24 h with the vehicle (DMSO; 0.1% v/v) and tested MICT in the presence or absence of TCDD (10 nM). RT-PCR determined the level of CYP1A1 mRNA, and the data were normalized per GAPDH mRNA level. […] (A,B) Experiments in three consecutive passages of human colon adenocarcinoma cell line LS180 in the absence (A) and the presence (B) of 10 nM TCDD. The bar graphs show the percentage of maximal induction attained by TCDD and are expressed as the mean ± SD. (C) Experiments in three consecutive passages of wild-type (AhR^+/^+) and AhR-knockout (AhR^−/^−) HT-29 cells. […] (D) Primary human hepatocytes from three different donors (LH79, Hep2201020, and Hep2201021).\n(§2) Total RNA was isolated using TRI Reagent® (Sigma Aldrich, Prague, Czech Republic). cDNA was synthesized using M-MuLV reverse transcriptase (New England Biolabs, Ipswich, MA, USA). The reverse transcription was performed at 42 °C for 60 min using Random Primers 6 (New England Biolabs, Ipswich, MA, USA) and diluted in a 1:4 ratio by PCR-grade water. The quantitative reverse transcriptase-polymerase chain reaction (qRT-PCR) was performed on the Lightcycler 480 II using the LightCycler ® 480 Probes Master (Roche Diagnostic Corporation, Prague, Czech Republic). The levels of CYP1A1 and GAPDH mRNAs were determined using the Universal Probe Library probes (UPL; Roche Diagnostic Corporation, Prague, Czech Republic) in combination with specific primers, using a protocol described elsewhere. All measurements were performed in triplicates, and the gene expression was normalized to glyceraldehyde-3-phosphate dehydrogenase (GAPDH) as a house-keeping gene. The data were processed using the delta-delta Ct method and expressed as a fold induction over the negative control (DMSO) or as a percentage of the positive control (maximal induction by TCDD)."}, "[2]": {"tested_on": "CYP1A1 mRNA", "experiment": "Summary of CYP1A1 gene expression in human hepatic and intestinal cells", "assay_type": "cell-based", "details": "for induction of CYP1A1 mRNA: 200 µM, LS180 cells, HT-29 cells, and primary human hepatocytes; for Gene Expression: Table 1 summary class, CYP1A1", "description": "as §1, §2"}, "[3]": {"tested_on": "AhR", "parameters": "method as in PMID 27158904", "details": "IAA approx. 5000 µM; cited from earlier work"}, "[4]": {"tested_on": "CYP1A1 mRNA", "parameters": "method as in PMID 24563545", "details": "100 µM IAA, cited from earlier work"}, "[5]": {"tested_on": "mouse AhR", "parameters": "method as in PMID 9708986", "details": "cited from earlier work"}, "[6]": {"tested_on": "guinea pig AhR", "parameters": "method as in PMID 9708986", "details": "cited from earlier work"}, "[7]": {"target": "T1, AhR (Homo sapiens, UniProt P35869)", "T1 sequence (P35869 11-848)": "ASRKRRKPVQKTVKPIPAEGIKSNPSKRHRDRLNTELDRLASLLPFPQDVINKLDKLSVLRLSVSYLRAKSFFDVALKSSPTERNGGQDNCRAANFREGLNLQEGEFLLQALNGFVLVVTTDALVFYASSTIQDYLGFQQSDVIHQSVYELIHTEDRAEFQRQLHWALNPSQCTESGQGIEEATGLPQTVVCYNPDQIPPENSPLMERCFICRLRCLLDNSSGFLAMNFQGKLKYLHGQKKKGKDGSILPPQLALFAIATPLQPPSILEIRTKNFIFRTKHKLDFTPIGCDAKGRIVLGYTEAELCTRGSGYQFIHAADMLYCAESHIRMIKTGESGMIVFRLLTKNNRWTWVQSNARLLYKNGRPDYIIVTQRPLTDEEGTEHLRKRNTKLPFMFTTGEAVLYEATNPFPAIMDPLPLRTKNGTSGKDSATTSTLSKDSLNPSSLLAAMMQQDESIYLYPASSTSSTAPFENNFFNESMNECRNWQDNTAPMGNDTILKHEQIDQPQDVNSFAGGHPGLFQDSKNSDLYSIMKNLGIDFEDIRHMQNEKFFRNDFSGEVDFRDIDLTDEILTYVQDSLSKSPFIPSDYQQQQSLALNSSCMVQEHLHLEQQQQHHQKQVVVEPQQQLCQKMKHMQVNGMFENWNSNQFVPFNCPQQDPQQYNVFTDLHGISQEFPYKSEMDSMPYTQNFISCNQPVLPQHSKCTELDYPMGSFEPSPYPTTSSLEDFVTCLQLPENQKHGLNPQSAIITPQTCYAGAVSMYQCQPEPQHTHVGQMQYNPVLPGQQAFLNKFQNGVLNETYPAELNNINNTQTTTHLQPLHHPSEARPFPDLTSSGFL", "experiment": "Reporter gene assay in AZ-AHR cells, agonist analyses (luciferase)", "description": "(§3) In the first series of experiments, we evaluated the agonistic and antagonistic effects of MICT on the AhR activation. […] The antagonistic effects of MICT were evaluated against typical full agonists of the AhR, comprising TCDD, BaP, and FICZ, which were applied at fixed concentrations corresponding to their EC80.\n(§4) Following the treatments, we lysed cells, and luciferase activity was measured. Experiments were performed at least in four consecutive cell passages. Incubations were performed in quadruplicates (technical replicates). In agonist analyses, the data from a representative experiment, expressed as a fold induction of luciferase activity over control cells, are shown. In antagonist analyses, the data are a percentage of maximal induction, and they are the mean ± SD.\n(§5) Then, cells were lysed, and luciferase activity was measured using the Tecan Infinite M200 plate luminometer (Schoeller Instruments, Czech Republic). The experiments were performed in at least four consecutive cell passages, and the treatments were in quadruplicates (technical replicates). The values of half-maximal effective concentration (EC50) for each MICT, and half-maximal inhibitory concentration (IC50—where appropriate) were calculated.\nSupplementary Figure 2. Tryptophan effects in culture medium on AhR activity. (A) Time-course of Trp\nlevels in culture media from hepatic (AZ-AHR), instestinal (LS174T) and skin (HaCaT) cells. Determined by\nHPLC. (B) Induction of AhR-dependent luciferase activity in AZ-AHR cells incubated for 24 h with TCDD,\nIndole and Trp in Trp/serum-free culture medium. (C) Induction of AhR-dependent luciferase activity in\nAZ-AHR cells incubated for 24 h with TCDD and Indole in standard (+Trp/+FBS), serum-free (+Trp/-FBS),\nTrp-free (-Trp/+FBS) and Trp/serum-free (-Trp/-FBS) culture medium. […]"}, "[8]": {"target": "T1, AhR", "experiment": "Reporter gene assay in AZ-AHR cells, antagonist analyses against TCDD, BaP, FICZ", "description": "as §3\nas §4, with “AZ-AHR cells were incubated for 24 h with vehicle (DMSO; 0.1% v/v) and increasing concentrations of MICT, in the absence (agonist analyses) or the presence (antagonist analyses) of TCDD (13.5 nM), BaP (15.8 µM) and FICZ (22.6 µM). Following” for “Following”\nas §5, with “AZ-AHR cells were incubated for 24 h with vehicle (DMSO; 0.1% v/v) and increasing concentrations of tested MICT in the presence or absence of TCDD (13.5 nM), FICZ (22.6 µM), or BaP (15.8 µM). Then,” for “Then,”"}, "[9]": {"tested_on": "AhR", "parameters": "method as in PMID 26235394", "details": "10 µM IPA, HepG2 cells; cited from earlier work"}, "[10]": {"target": "T2, murine AhR (Mus musculus, UniProt P30561)", "T2 sequence (P30561 10-805)": "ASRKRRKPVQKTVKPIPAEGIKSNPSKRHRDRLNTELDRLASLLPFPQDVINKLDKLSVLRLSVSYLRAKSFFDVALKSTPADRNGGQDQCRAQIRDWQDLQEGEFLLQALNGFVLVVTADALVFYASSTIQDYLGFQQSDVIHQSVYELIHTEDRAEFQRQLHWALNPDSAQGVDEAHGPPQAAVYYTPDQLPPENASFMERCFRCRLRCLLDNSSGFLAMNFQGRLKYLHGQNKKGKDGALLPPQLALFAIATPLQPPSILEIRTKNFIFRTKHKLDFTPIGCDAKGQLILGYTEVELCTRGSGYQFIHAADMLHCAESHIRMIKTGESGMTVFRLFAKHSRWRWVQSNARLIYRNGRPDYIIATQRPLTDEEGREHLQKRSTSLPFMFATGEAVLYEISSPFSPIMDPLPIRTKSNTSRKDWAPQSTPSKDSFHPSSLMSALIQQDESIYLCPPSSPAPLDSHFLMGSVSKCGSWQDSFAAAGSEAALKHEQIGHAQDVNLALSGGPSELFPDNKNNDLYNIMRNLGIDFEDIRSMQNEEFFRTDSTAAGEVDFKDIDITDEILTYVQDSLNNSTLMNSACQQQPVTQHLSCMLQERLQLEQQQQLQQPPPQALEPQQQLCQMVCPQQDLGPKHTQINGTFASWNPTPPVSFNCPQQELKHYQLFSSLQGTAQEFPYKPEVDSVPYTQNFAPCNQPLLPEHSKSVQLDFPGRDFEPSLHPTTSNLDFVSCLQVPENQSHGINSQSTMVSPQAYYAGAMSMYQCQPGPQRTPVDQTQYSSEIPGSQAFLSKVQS", "experiment": "Competitive radio-ligand ([3H]-TCDD) AhR binding assay, cytosols from Hepa1c1c7 cells", "details": "data not shown", "description": "Figure 2 Competitive radio-ligand binding assay. Cytosols from Hepa1c1c7 cells were incubated with vehicle (negative control; 0.1% V/V), FICZ (positive control; 0.01 nM – 10 nM), TCDF (non-specific binding; 200 nM) and increasing doses of MICT in the presence of 2 nM [^3H]-TCDD. The specific binding of [^3H]-TCDD was determined as a difference between total and non-specific (200 nM; TCDF) reactions (value for vehicle DMSO; 0.1% V/V = corresponds to specific binding of [^3H]-TCDD = 100%). At least two independent experiments were performed and the incubations were done in triplicates in each experiment (technical replicates).\nLigand binding assay was performed using cytosolic protein extracts from murine Hepa1c1c7 cells as described. Briefly, aliquots of protein (2 mg/mL) were incubated at the room temperature for two (2) h with 2 nM [^3H]-TCDD in the presence of DMSO (vehicle control), FICZ (positive control), 200 nM TCDF (non-specific binding) or increasing concentration of MICT. After the incubation, the hydroxyapatite slurry was added to the samples and the suspension was incubated on ice and washed three times with HEGT buffer. The hydroxyapatite pellet was re-suspended in scintillation cocktail, and radioactivity was determined in a liquid scintillation counter. The specific binding of [^3H]-TCDD was determined by subtracting the radioactivity of non-specific reaction (TCDF) from total radioactivity. The values of IC50 were calculated where appropriate."}}, "note": "Where two headings read alike, the source gives them in different places."}
{"smiles": "O=C(O)Cc1c[nH]c2ccccc12", "note": "[IAA, indole-3-acetate]", "values": [{"measurement": "antagonistic effects on CYP1A1 mRNA", "setting": "[1]", "result": "to a lesser extent"}, {"measurement": "induction of CYP1A1 mRNA", "setting": "[2]", "result": "no induction"}, {"measurement": "Gene Expression", "setting": "[2]", "result": "inactive"}, {"measurement": "activation of the AhR", "setting": "[3]", "result": 15, "unit": "fold"}, {"measurement": "induction of CYP1A1 mRNA", "setting": "[4]; Caco-2 and MDA-MB-231 cells", "result": "≈ 5 fold"}, {"measurement": "induction of CYP1A1 mRNA", "setting": "[4]; MDA-MB-468 cells", "result": "not"}, {"measurement": "concentration at which activation of AhR was described", "setting": "[5]", "result": 2, "unit": "mM"}, {"measurement": "concentration at which activation of AhR was described", "setting": "[6]", "result": 2, "unit": "mM"}]}
{"smiles": "O=C(O)CCc1c[nH]c2ccccc12", "note": "[IPA, indole-3-propionate]", "values": [{"measurement": "activation of AhR", "setting": "[7]; AZ-AHR cells, 200 µM", "result": "negligible activation"}, {"measurement": "fold induction of luciferase activity (efficacy)", "setting": "[7]; AZ-AHR cells, 24 h, up to 200 µM (IAC 100 µM, IND 10 mM), plateau not reached", "result": "≈ 8 fold"}, {"measurement": "EC50", "setting": "[7]; EC50, AZ-AHR cells, 24 h, agonist analyses", "result": "98.3 ± 5.72", "unit": "µM"}, {"measurement": "Efficacy (EMAX)", "setting": "[7]; Table 1 summary class", "result": "low"}, {"measurement": "Potency (EC50)", "setting": "[7]; Table 1 summary class", "result": "low"}, {"measurement": "antagonistic effect against full agonists", "setting": "[8]; AZ-AHR cells, 24 h, TCDD, BaP and FICZ at EC80", "result": "no antagonistic effects"}, {"measurement": "Antagonism (IC50)", "setting": "[8]; Table 1 summary class", "result": "none"}, {"measurement": "antagonistic effects on CYP1A1 mRNA", "setting": "[1]", "result": "to a lesser extent"}, {"measurement": "induction of CYP1A1 mRNA", "setting": "[2]", "result": "no induction"}, {"measurement": "Gene Expression", "setting": "[2]", "result": "inactive"}, {"measurement": "AhR activation", "setting": "[9]", "result": "no AhR activation"}]}
{"smiles": "N[C@@H](Cc1c[nH]c2ccccc12)C(=O)O", "note": "[Trp, tryptophan]", "values": [{"measurement": "activation of AhR", "setting": "[7]", "result": "did not activate"}, {"measurement": "displacement of 3H-TCDD from binding at the murine AhR", "setting": "[10]", "result": "did not displace"}]}
